In patent US11091495B2, “Substituted imidazo[1,2-c]pyrimidines as PRC2 inhibitors” (Mirati Therapeutics, Inc., priority 2018, dated 2021):
Read-outs that look alike come from different tables or passages of the source.

Assays:
[1] = molecular target: purified human, His-tagged PRC2 complex (Homo sapiens (Human), UniProt O75530); assay: Hot Spot HMT assay of PRC2 enzymatic activity; format: biochemical; conditions: 10 nM PRC2 complex, core histone H3, 1 uM 3H-SAM, 1 hr at 30° C; read-out: IC50, Inhibition of PRC2-mediated Enzymatic Activity
Chain of purified human, His-tagged PRC2 complex (Q15910 whole entry): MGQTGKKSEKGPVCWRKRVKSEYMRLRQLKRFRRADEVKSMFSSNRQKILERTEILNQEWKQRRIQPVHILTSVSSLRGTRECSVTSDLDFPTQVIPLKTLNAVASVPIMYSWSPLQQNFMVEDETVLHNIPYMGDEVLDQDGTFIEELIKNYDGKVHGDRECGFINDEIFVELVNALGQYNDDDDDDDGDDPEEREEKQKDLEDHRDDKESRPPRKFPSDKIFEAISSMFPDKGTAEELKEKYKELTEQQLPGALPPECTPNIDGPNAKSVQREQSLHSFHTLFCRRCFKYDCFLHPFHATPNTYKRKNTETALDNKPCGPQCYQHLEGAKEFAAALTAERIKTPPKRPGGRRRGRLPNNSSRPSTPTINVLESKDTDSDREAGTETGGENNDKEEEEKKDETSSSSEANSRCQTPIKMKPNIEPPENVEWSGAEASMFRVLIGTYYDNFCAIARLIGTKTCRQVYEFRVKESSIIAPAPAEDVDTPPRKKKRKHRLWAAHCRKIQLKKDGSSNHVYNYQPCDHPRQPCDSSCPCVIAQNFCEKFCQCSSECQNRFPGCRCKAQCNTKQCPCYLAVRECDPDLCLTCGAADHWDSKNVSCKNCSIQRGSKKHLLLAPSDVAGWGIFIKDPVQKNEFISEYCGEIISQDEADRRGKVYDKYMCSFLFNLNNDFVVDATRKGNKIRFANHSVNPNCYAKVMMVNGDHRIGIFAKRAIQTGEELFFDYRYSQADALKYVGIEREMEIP
Chain of purified human, His-tagged PRC2 complex (O75530 whole entry): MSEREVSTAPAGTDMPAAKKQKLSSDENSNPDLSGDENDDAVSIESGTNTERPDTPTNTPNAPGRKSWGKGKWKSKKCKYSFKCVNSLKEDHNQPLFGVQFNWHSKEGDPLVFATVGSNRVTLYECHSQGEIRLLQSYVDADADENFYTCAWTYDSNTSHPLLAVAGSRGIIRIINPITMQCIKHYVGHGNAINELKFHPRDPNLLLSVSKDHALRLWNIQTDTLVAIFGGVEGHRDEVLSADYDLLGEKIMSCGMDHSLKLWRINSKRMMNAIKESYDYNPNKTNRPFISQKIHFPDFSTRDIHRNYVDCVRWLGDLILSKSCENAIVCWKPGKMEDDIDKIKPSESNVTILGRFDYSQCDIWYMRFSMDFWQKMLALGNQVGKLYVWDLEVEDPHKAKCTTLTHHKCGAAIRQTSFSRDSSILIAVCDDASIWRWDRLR
Chain of purified human, His-tagged PRC2 complex (Q15022 whole entry partner): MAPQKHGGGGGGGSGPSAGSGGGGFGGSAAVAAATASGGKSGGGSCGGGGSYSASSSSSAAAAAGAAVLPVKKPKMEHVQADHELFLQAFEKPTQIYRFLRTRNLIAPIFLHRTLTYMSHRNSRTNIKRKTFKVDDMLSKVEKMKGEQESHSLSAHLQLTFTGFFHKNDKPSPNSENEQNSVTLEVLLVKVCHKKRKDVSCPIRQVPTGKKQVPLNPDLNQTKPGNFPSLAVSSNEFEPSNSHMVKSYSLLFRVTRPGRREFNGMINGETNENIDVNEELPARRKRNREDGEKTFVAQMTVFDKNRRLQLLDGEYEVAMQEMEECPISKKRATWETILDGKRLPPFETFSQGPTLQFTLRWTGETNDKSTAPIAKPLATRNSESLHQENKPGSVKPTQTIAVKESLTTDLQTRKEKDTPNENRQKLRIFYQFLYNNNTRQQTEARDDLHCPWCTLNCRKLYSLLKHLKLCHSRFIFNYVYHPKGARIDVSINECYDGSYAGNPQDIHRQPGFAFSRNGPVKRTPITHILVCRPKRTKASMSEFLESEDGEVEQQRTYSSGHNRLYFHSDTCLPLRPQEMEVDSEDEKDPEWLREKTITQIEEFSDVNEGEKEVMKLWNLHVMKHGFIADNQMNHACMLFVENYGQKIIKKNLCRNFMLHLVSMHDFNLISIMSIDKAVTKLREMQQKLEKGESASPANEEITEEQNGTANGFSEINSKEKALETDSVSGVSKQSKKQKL
Chain of purified human, His-tagged PRC2 complex (Q6ZN18 whole entry partner): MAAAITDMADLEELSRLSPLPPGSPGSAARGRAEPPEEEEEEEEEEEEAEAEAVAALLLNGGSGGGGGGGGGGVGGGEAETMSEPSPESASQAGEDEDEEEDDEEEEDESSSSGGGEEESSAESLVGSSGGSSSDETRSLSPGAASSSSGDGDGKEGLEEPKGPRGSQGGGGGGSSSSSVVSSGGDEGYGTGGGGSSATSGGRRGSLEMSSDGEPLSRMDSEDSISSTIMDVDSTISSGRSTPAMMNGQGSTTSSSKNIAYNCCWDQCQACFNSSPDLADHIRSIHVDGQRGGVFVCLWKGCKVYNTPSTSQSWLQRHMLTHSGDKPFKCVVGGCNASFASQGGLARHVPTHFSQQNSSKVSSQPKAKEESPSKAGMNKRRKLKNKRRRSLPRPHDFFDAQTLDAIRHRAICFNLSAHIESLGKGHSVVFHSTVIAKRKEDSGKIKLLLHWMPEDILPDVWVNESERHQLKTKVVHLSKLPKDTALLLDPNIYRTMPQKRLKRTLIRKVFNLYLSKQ
Chain of purified human, His-tagged PRC2 complex (Q09028 whole entry partner): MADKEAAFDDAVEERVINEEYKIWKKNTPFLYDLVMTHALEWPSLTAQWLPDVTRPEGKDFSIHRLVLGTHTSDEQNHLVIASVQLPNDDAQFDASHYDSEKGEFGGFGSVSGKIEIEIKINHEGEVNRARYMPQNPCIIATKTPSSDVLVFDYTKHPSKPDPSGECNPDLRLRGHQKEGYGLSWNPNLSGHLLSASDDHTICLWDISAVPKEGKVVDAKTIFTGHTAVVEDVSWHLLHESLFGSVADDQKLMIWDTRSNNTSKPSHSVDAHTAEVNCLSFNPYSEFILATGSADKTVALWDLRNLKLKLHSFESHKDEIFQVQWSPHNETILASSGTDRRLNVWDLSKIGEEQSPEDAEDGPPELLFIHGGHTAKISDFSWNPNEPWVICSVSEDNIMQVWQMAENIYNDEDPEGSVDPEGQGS

[2] = tested on: PRC2-mediated histone H3 Lys27 trimethylation in Pfeiffer cells (EZH2 A677G); assay: Tri-Methyl Histone H3 (Lys 27) sandwich ELISA in Pfeiffer cells; format: cell-based, human; conditions: 96 hours incubation, read-out: IC50 (nM), Inhibition of EZH2-mediated Histone H3 Trimethylation
Text: The Pfeiffer cell line was established from a […] from a patient having metastatic diffuse large B-cell lymphoma (DLBCL). This cell line expresses a mutant form of the EZH2 enzyme (A677G) that results in enhanced EZH2 activity leading to increased methylation of histone H3 Lys27. Increased trimethylation of histone H3 Lys27 is believed to be implicated in tumorgenesis and poor clinical prognosis in lymphomas (McCabe et al., (2012) Nature 492:108-112).
Inhibition of PRC2-mediated histone H3 methylation by compounds of Formula (I) was measured by ELISA using a Tri-Methyl Histone H3 (Lys 27) Sandwich ELISA Kit (Cell Signaling Tech #7866C) in accordance with the manufacturer's instructions. Briefly, Pfeiffer cells were cultured in RPMI medium supplemented with 10% fetal bovine serum and 1% penicillin and 1% streptomycin in 96 well culture plates at 37° C. to a density of 8000 cells/90 μl/well and the cells were harvested. A series of 3-fold serial dilutions of each test compound of Formula (I) were prepared in RPMI medium and added to the cells at final concentrations ranging from 1 μM to 0.15 nM. The plates were incubated at 37° C. for 96 hours.
After incubation, the cells were pelleted by centrifugation in a pre-cooled 4° C. rotor at 1,100 rpm for 10 min and the supernatant was removed by aspiration. The cell pellet was resuspended in 55 μl of Lysis Buffer (0.4M HCl) and incubated on ice with periodic shaking for 30 minutes. The lysed cells were subjected to centrifugation at 4,200 rpm for 10 min at 4° C. and the supernatant containing acid-soluble proteins was collected and the remainder discarded. The acid-soluble proteins were brought to a neutral pH by the addition of 20 μl of Neutralization Buffer (1 M Sodium phosphate, dibasic (pH 12.5), 2.5 mM DTT and 1 mM PMSF) and the neutralized lysates were analyzed by ELISA.
A 65 μl aliquot of each cell lysate was added to a well of a microwell strip, the microwells were sealed using tape and incubated either at 37° C. for two hours or at 4° C. overnight. After incubation, the tape was removed at the microwells were washed four times using 200 μl of 1× Wash Buffer. To each washed microwell, a 100 μl aliquot of an anti-trimethyl histone H3 Lys27 Detection Antibody solution was added and the microwells were incubated at 37° C. for one hour. […]
A 100 μl aliquot of an HRP-linked secondary antibody was added to each well, the wells were sealed with tape and incubated at 37° C. for 30 min. […] The degree of histone H3 trimethylation was determined using a spectrophotometric readout by measuring the absorbance at 450 nm and then calculating the amount of trimethylated histone H3. A=≤100 nM; B=>100 nM-≤500 nM; C=>500 nM and N.D.=not determined.

[3] = tested on: Karpas 422 cells (EZH2 Y641N); assay: Karpas 422 cell viability (Cell Titre Glo); format: cell-based, human; conditions: Day 4, Day 7 or Day 11 (time point not given), read-out: IC50 (nM), Inhibiting Proliferation of Cells Expressing an Activating Mutant Form of EZH2
Description: Karpas 422 cell line is a human B cell non-Hodgkin's lymphoma cell line established from a patient having DLBCL. This EZH2 heterozygotic cell line expresses a mutant form of EZH2 enzyme (Y641N) that increases histone H3 methylation and this mutation has been implicated in the tumorgenesis of lymphomas, such as DLBCL.
Karpas 422 cells (PHE cat no.,06101702) were cultured in RPMI medium supplemented with 20% fetal bovine serum and 1% penicillin/1% streptomycin and plated at a density of 1000 cells/90 μl/well in 96 well white assay plates. A dose response curve for compounds of the present invention was determined by adding a 10 μl aliquot of stock solutions of varying concentrations of compounds to the same medium in each well, over a concentration range of 10 μM using 3-fold dilutions to a final concentration of 1.5 nM. The plates were incubated at 37° C. for predetermined time periods, Day 4, Day 7, or Day 11, and the viability of the cells was measured using a CTG assay kit (Cell Titre Glo; Promega cat. no G7573) on Day 4 and Day 7 in accordance with the manufacturer's instructions.
For the viability assay for the Day 11 plates, the plates were subjected to centrifugation at 1100 rpm for five minutes on Day 7 and the supernatant was removed by aspiration. The cells were resuspended in 90 μl aliquot of the appropriate growth medium lacking the compound followed by addition of 10 μl of a 10× stock of the same compound at the same concentration. The viability of the Day 11 cells was measured using the CTG assay kit described above in accordance with the manufacturer's instructions. The IC50 values for each compound at each predetermined time point were calculated using Graph pad PRISM software and the results are shown in Table 15. A=≤250 nM; B=<250 nM-≤500 nM; and C=>500 nM.

| IC50 [1] | IC50 ([2]; Homo sapiens) | IC50 ([3]; Homo sapiens) | IC50 [2] | IC50 [3] | SMILES |
| --- | --- | --- | --- | --- | --- |
| < 0.1 µM | < 100 nM | ≤ 250 nM | – | – | N#Cc1cn2c(NCc3c(F)ccc4c3CCO4)ncc(-c3cnc(C4CC4)cn3)c2n1 [Example 70] |
| – | – | – | 100 to 500 nM | 250 to 500 nM | N#Cc1cn2c(NCc3c(F)ccc4c3CCO4)ncc(-c3cnn(CC4CCOC4)c3)c2n1 (stereo not drawn) [compound 154] |
| – | 100 to 500 nM | ≤ 250 nM | – | – | Cc1nc(N2CCOCC2)ccc1-c1cnc(NCc2c(F)ccc3c2CCO3)n2cc(C#N)nc12 [Example 56] |

| SMILES | IC50 [1] | IC50 ([2]; Homo sapiens) | IC50 ([3]; Homo sapiens) | IC50 [2] | IC50 [3] |
| --- | --- | --- | --- | --- | --- |
| CN1CCC1c1ccc(-c2cnc(NCc3c(F)ccc4c3CCO4)n3cc(C#N)nc23)cc1 (stereo not drawn) [Example 221] | – | 100 to 500 nM | ≤ 250 nM | – | – |
